Molecules are shown by their SMILES.

The subject of series [1] is primary human neonatal fibroblasts. The series can be described thus: ATP production by primary human fibroblasts, CellTiter-Glo luminescent cell viability assay. The note with it: for Luminescence reading (average): 2 x 24 h dosing, 4 wells, 0.1% DMSO control 2245457; for Effect on fibroblast energy production (ATP, luminescence readings): statistically significant improvement at 100 μM. The format is cell-based. Here is the method:
The effect of 12HSA and 12-[(12-hydroxyoctadecanoyl)oxy]octadecanoic acid on ATP production by primary human fibroblasts was assayed.
The samples were prepared as in Example 2, except the final concentrations were at 0.1 μM, 1 μM, 10 μM, 100 μM for both compounds. Again 0.1% DMSO in media is used as the vehicle control. Primary human neonatal fibroblasts grown in DMEM medium (high glucose supplemented with 2 mM Lglutamine, 10% fetal bovine serum, antibiotic) to 70% confluency, trypsinized, and re-suspended in medium. 7,500 cells seeded per well in the inner 60 wells of a 96-well plate in the same DMEM medium and grown for 3 days. The medium removed and the cells washed with serum-free DMEM, and then dosed with 200 μl serum-free DMEM medium containing appropriate concentrations of the testing compounds. Each dosing was replicated in 4 wells. After 24 hours, test compound solution was removed and the cells were treated with a fresh solution of the same treatment. After another 24 hours, the ATP production of the cultures was assayed by CellTiter-Glo luminescent Cell viability assay (Promega #G7572) and luminescence readings measured. Average readings were calculated for every treatment.
Statistical analysis was done by student t-Test with the assumption that the two samples had two tailed distribution with equal variance.

Series [2] in a line: Observation of mixtures with lipophilic cosmetically acceptable carriers (gelling vs flowable liquid). The following applies: for Result of mixtures with indicated carriers: 10% in 90% carrier, summary of Table 3. Type of series: physicochemical. Here is the method:
Various mixtures were prepared with common lipohilic cosmetically acceptable carrier that are liquid at temperatures up to 40° C. Observation were recorded in Table 3.

Series [3] relates to primary human keratinocytes. Put plainly: Involucrin expression (differentiation) in primary human keratinocytes, Western blot. The format is cell-based. The note with it: for Involucrin expression (arbitrary unit) at day 1: day 1 (24 h), 0.1% DMSO control 27.85; for Involucrin expression (arbitrary unit) at day 2: day 2 (48 h), 0.1% DMSO control 33.91; for Effect on human keratinocyte differentiation (involucrin expression compared to vehicle control): vs 0.1% DMSO, day 2. Here is the method:
The effect of 12HSA and 12-[(12-hydroxyoctadecanoyl)oxy]octadecanoic acid on differentiation in primary human keratinocytes was evaluated.
The compounds were dissolved in DMSO at 10 mM as the initial stock solutions and then diluted to appropriate final concentrations, 0.1 μM, 1 μM, 10 μM for 12-[(12-hydroxyoctadecanoyl)oxy]octadecanoic acid and 1 μM, 10 μM for the monomer with culture medium for treatments. 0.1% DMSO was used as the vehicle control. Primary human keratinocytes (Passage 2) grown to 70% confluency in EpiLife medium (Gibco MEP1500CA, 0.06 mM Calcium), trypsinized, cell number counted and Re-suspended in medium to make final cell counts at 5×10^4/ml. 100, 000 cells seeded per well in a 6 well plate. The cells again grown to 70% confluency, and then treated with 12-HSA monomer, 12-[(12-hydroxyoctadecanoyl)oxy]octadecanoic acid, and 0.1% DMSO as control. Treated cells incubated for 24 h and 48 h, and harvested at the corresponding time points. Proteins were extracted from the cultures and protein concentration was quantified by Quick start Bradford dye reagent (BioRad #500-0205). 5 ug protein samples were subjected to 4-20% protein gel (BioRad Criterion #345-0034), separated by running gel at 175 Volt for about 1 hour. Proteins were transferred to PVDF membrane (iBlot Gel transfer stacks PVDF, Invitrogen IB4010-01). The PVDF membrane was blocked in 1% BSA/PBS for 30 min and incubated with involucrin primary antibody (1:4000 dilution) in 1% BSA/PBS at 4° C. O/N (Sigma 19018), washed three times with TBS-Tween (Sigma T-9039) for 15 min each. The membrane then incubated with a secondary antibody in 1% BSA/PBS at RT for 1 h (Cy5-conjugated Affipure Goat anti mouse IgG, Jackson ImmunoResearch Lab #115-175-003), washed three times with TBS-Tween for 15 min each, and scanned with Licor/Odyssey (Li-Cor Bioscience). The images obtained were analyzed for the involucrin bands for signal intensity by Odyssey v3.0 analysis program (Li-Cor Bioscience).

With `CCCCCCC(O)CCCCCCCCCCC(=O)O` (stereo not shown) [12HSA, 12-hydroxyoctadecanoic acid, reference compound], the “Luminescence reading (average)” value in series [1] (0.1 μM) was 2359722; in series [1] (1 μM) it was 2398308; in series [1] (10 μM), 2304763; in series [1] (100 μM) it was 2151797. The “Effect on fibroblast energy production (ATP, luminescence readings)” value in series [1] is listed as “did not”. The Observations entry in series [2] (10% in 90% DC200-10cS) is recorded as “paste”; in series [2] (10% in 90% Isopropyl palmitate) it was “hard gel”; in series [2] (10% in 90% Light Mineral Oil) it was “hard gel”; in series [2] (10% in 90% Sunflower seed oil), “hard gel”; in series [2] (10% in 90% Tween40), “gel”; in series [2] (10% in 90% cyclomethicone-D5), “soft gel”. For the same compound, the Observations result in series [2] (10% in 90% isostearyl alcohol) and in series [2] (10% in 90% oleic acid) was “gel” each time. Moreover, the “Result of mixtures with indicated carriers” value in series [2] was “gelled the carrier”. In addition, the “Involucrin expression (arbitrary unit) at day 1” value in series [3] (1 μM) was 26.7 arbitrary unit; in series [3] (10 μM) it was 34.51 arbitrary unit. The “Involucrin expression (arbitrary unit) at day 2” value in series [3] (1 μM) stood at 56.03 arbitrary unit; in series [3] (10 μM) it was 69.52 arbitrary unit. Moreover, in series [3], the “Effect on human keratinocyte differentiation (involucrin expression compared to vehicle control)” value was “stimulated human keratinocyte differentiation”.

For the compound `CCCCCCC(O)CCCCCCCCCCC(=O)OC(CCCCCC)CCCCCCCCCCC(=O)O` (stereo not shown) [12-[(12-hydroxyoctadecanoyl)oxy]octadecanoic acid], the “Luminescence reading (average)” value in series [1] (0.1 μM) was 2261382; in series [1] (1 μM), 2550326; in series [1] (10 μM), 2594799; in series [1] (100 μM) it was 2794979. Also, the “Effect on fibroblast energy production (ATP, luminescence readings)” value in series [1] is reported as “stimulated fibroblast energy production”. Also, the Observations result in series [2] (10% in 90% DC200-10cS) is recorded as “flowable”; in series [2] (10% in 90% Isopropyl myristate), “liquid”; in series [2] (10% in 90% Light Mineral Oil) it was “flowable”; in series [2] (10% in 90% Sunflower seed oil) it was “clear”; in series [2] (10% in 90% Tween40) it was “clear”; in series [2] (10% in 90% cyclomethicone-D5), “flowable”. Besides, the Observations result in series [2] (10% in 90% isostearyl alcohol) and in series [2] (10% in 90% oleic acid) was “clear” in each case. The “Result of mixtures with indicated carriers” value in series [2] was “flowable, or even clear, liquids”. Further, the “Involucrin expression (arbitrary unit) at day 1” value is reported as 35.85 arbitrary unit in series [3] (0.1 μM), 36.67 arbitrary unit in series [3] (1 μM) and 33.77 arbitrary unit in series [3] (10 μM). Further, the “Involucrin expression (arbitrary unit) at day 2” value in series [3] (0.1 μM) turned out to be 32.61 arbitrary unit; in series [3] (1 μM), 33.14 arbitrary unit; in series [3] (10 μM) it was 29.46 arbitrary unit. For the same compound, the “Effect on human keratinocyte differentiation (involucrin expression compared to vehicle control)” value in series [3] is “did not have an effect”.

The record behind these values is patent US20120122936A1, “LEAVE-ON NONSOLID SKIN CONDITIONING COMPOSITIONS CONTAINING 12-[(12-HYDROXYOCTADECANOYL)OXY] OCTADECANOIC ACID” (CONOPCO, INC., D/B/A UNILEVER, priority 2010, published 2012).
